One series has as its target T1, DPP-IV (Homo sapiens, UniProt P27487).
T1 construct: an extract of human colon carcinoma cell line Caco-2 is used as the DPP IV source; endogenous in cells; host or cells: Caco-2 (human colon carcinoma), differentiated to induce DPP-IV expression; Nonidet-P40 solubilised extract
As to the kind of experiment: DPP-IV assay with Caco-2 cell extract as DPP IV source, AFC substrate, fluorescence. It counts as biochemical. The settings on record: extract of human colon carcinoma cell line Caco-2; substrate 100 μM; 60 minutes at ambient temperature; read-out: DPP IV inhibition IC50. Here is the method:
The differentiation of the cells in order to induce the DPP-IV expression was carried out as described by Reiher et al. in an article entitled “Increased expression of intestinal cell line Caco-2”, which appeared in Proc. Natl. Acad. Sci. Vol. 90, pages 5757-5761 (1993). The cell extract was obtained from cells solubilised in a buffer (10 mM Tris HCl, 0.15 M NaCl, 0.04 t.i.u. aprotinin, 0.5% Nonidet-P40, pH 8.0) by centrifuging at 35,000 g for 30 minutes at 4° C. (to remove cell debris).
The DPP-IV assay was carried out as follows:
50 μl substrate solution (AFC; AFC is amido-4-trifluoromethylcoumarin), final concentration 100 μM, were placed in black microtitre plates. 20 μl of assay buffer (final concentrations 50 mM Tris HCl pH 7.8, 50 mM NaCl, 1% DMSO) was pipetted in. The reaction was started by adding 30 μl of solubilised Caco-2 protein (final concentration 0.14 μg of protein per well). The test substances to be investigated were typically added prediluted in 20 μl, and the volume of assay buffer was then reduced accordingly. The reaction was carried out at ambient temperature, incubating for 60 minutes. Then the fluorescence was measured in a Victor 1420 Multilabel Counter, the excitation wavelength being 405 nm and the emission wavelength being 535 nm. Blank readings (corresponding to 0% activity) were obtained in mixtures without any Caco-2 protein (volume replaced by assay buffer), control values (corresponding to 100% activity) were obtained in mixtures with no substance added.

Series [1] is described as follows: Tolerability after oral administration to rats. It counts as in vivo. To be noted: 30 mg/kg.

pIC50: −log10 of the molar value. Structures can show the parent of a compound that is named as a salt.

T1 sequence (P27487 whole entry): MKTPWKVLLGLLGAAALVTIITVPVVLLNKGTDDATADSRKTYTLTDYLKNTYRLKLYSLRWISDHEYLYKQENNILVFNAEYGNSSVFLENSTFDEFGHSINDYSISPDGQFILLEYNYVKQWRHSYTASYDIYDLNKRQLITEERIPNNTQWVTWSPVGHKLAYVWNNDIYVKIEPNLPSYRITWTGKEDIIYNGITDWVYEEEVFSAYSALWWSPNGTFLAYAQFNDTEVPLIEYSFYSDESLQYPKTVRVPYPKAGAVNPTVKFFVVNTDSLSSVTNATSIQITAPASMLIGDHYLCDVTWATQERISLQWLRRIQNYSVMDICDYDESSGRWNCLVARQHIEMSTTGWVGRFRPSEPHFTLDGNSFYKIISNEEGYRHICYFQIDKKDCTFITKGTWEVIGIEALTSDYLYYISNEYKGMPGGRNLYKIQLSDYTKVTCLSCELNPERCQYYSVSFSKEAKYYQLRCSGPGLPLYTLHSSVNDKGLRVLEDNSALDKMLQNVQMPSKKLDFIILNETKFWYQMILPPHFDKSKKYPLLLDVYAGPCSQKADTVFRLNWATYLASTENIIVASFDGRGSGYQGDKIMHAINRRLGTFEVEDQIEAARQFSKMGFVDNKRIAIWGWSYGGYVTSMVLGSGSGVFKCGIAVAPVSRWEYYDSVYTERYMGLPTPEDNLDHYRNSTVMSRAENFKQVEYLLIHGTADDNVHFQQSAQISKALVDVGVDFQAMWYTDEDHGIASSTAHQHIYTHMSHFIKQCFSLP

Take `CN(C)c1nc2nc(N3CCCC(N)C3)n(Cc3ccccc3)c2c(=O)n1C` (stereo not shown) [1(8), 8-(3-amino-piperidin-1-yl)-7-benzyl-2-dimethylamino-1-methyl-1,7-dihydro-purin-6-one trifluoroacetate]: the pIC50 at DPP-IV is 6.67.

For `CC(C)=CCn1c(N2CCCC(N)C2)nc2ncn(Cc3cccc4ccccc34)c(=O)c21` (stereo not shown) [1(27), 8-(3-amino-piperidin-1-yl)-7-(3-methyl-but-2-en-1-yl)-1-[(naphthalen-1-yl)methyl]-1,7-dihydro-purin-6-one], the pIC50 at DPP-IV was 7.72. On to `CC(C)=CCn1c(N2CCCC(N)C2)nc2nc(C)n(Cc3cccc4ccccc34)c(=O)c21` (stereo not shown) [1(26), 8-(3-amino-piperidin-1-yl)-2-methyl-7-(3-methyl-but-2-en-1-yl)-1-[(naphthalen-1-yl)methyl]-1,7-dihydro-purin-6-one], for which the pIC50 at DPP-IV is 7.40.

With `Cn1c(CC(=O)c2ccccc2)nc2nc(N3CCCC(N)C3)n(Cc3ccccc3)c2c1=O` (stereo not shown) [1(23), 8-(3-amino-piperidin-1-yl)-7-benzyl-1-methyl-2-(2-oxo-2-phenyl-ethyl)-1,7-dihydro-purin-6-one], the pIC50 at DPP-IV was 6.80.

On to `Cn1c(N)nc2nc(N3CCCC(N)C3)n(Cc3ccccc3)c2c1=O` (stereo not shown) [1(9), 2-amino-8-(3-amino-piperidin-1-yl)-7-benzyl-1-methyl-1,7-dihydro-purin-6-one trifluoroacetate], for which, at DPP-IV, the negative logarithm of the IC50 (pIC50) was 7.21. As to `NC1CCCN(c2nc3nc(SCc4ccccc4)[nH]c(=O)c3n2Cc2ccccc2)C1` (stereo not shown) [1(15), 8-(3-amino-piperidin-1-yl)-7-benzyl-2-benzylsulphanyl-1,7-dihydro-purin-6-one trifluoroacetate], on DPP-IV, the pIC50 is 7.24.

As for `Cn1c(NCc2ccc(F)cc2)nc2nc(N3CCCC(N)C3)n(Cc3ccccc3)c2c1=O` (stereo not shown) [1(1), 8-(3-amino-piperidin-1-yl)-7-benzyl-2-(4-fluoro-benzylamino)-1-methyl-1,7-dihydro-purin-6-one trifluoroacetate], the pIC50 at DPP-IV is 7.62. The same measure, in the same setting: in the case of `CSc1nc2nc(N3CCCC(N)C3)n(Cc3ccccc3)c2c(=O)[nH]1` (stereo not shown) [1(14), 8-(3-amino-piperidin-1-yl)-7-benzyl-2-methylsulphanyl-1,7-dihydro-purin-6-one hydrochloride] it was 6.80. For `Cn1c(C#N)nc2nc(N3CCCC(N)C3)n(Cc3ccccc3)c2c1=O` (stereo not shown) [1(24), 8-(3-amino-piperidin-1-yl)-7-benzyl-2-cyano-1-methyl-1,7-dihydro-purin-6-one trifluoroacetate], the pIC50 on DPP-IV was 6.95. As for `CNc1nc2nc(N3CCCC(N)C3)n(Cc3ccccc3)c2c(=O)n1C` (stereo not shown) [1(4), 8-(3-amino-piperidin-1-yl)-7-benzyl-1-methyl-2-methylamino-1,7-dihydro-purin-6-one trifluoroacetate], the pIC50 on DPP-IV was 7.24. For `CC(C)=CCn1c(N2CCCC(N)C2)nc2nc(CCc3ccccc3)n(C)c(=O)c21` (stereo not shown) [1(12), 8-(3-amino-piperidin-1-yl)-1-methyl-7-(3-methyl-but-2-en-1-yl)-2-(2-phenylethyl)-1,7-dihydro-purin-6-one trifluoroacetate], the pIC50 at DPP-IV was 7.74. Same read-out and setting: in the case of `NC1CCCN(c2nc3ncn(CC(=O)c4ccccc4)c(=O)c3n2Cc2ccccc2)C1` (stereo not shown) [1(22), 8-(3-amino-piperidin-1-yl)-7-benzyl-1-(2-oxo-2-phenyl-ethyl)-1,7-dihydro-purin-6-one trifluoroacetate] it was 7.32; in that of `Cn1c(NCC2CCCCC2)nc2nc(N3CCCC(N)C3)n(Cc3ccccc3)c2c1=O` (stereo not shown) [1(6), 8-(3-amino-piperidin-1-yl)-7-benzyl-2-cyclohexylmethylamino-1-methyl-1,7-dihydro-purin-6-one trifluoroacetate], 7.32; in that of `Cn1c(NCCc2ccccc2)nc2nc(N3CCCC(N)C3)n(Cc3ccccc3)c2c1=O` (stereo not shown) [1(2), 8-(3-amino-piperidin-1-yl)-7-benzyl-1-methyl-2-[(2-phenylethyl)amino]-1,7-dihydro-purin-6-one trifluoroacetate], 7.38.

`Cn1c(N2CCCCC2)nc2nc(N3CCCC(N)C3)n(Cc3ccccc3)c2c1=O` (stereo not shown) [1(7), 8-(3-amino-piperidin-1-yl)-7-benzyl-1-methyl-2-(piperidin-1-yl)-1,7-dihydro-purin-6-one hydrochloride]: at DPP-IV, the pIC50 is 6.36. The same measure, in the same setting: in the case of `CC(C)Nc1nc2nc(N3CCCC(N)C3)n(Cc3ccccc3)c2c(=O)n1C` (stereo not shown) [1(3), 8-(3-amino-piperidin-1-yl)-7-benzyl-2-isopropylamino-1-methyl-1,7-dihydro-purin-6-one trifluoroacetate] it was 6.96; in that of `COc1ccc(Cn2cnc3nc(N4CCCC(N)C4)n(CC=C(C)C)c3c2=O)c2ccccc12` (stereo not shown) [1(28), 8-(3-amino-piperidin-1-yl)-7-(3-methyl-but-2-en-1-yl)-1-[(4-methoxy-naphthalen-1-yl)methyl]-1,7-dihydro-purin-6-one], 7.24. On to `CC(C)=CCn1c(N2CCCC(N)C2)nc2nc(C)n(Cc3ccccc3)c(=O)c21` (stereo not shown) [1(25), 8-(3-amino-piperidin-1-yl)-1-benzyl-2-methyl-7-(3-methyl-but-2-en-1-yl)-1,7-dihydro-purin-6-one], for which the negative-log IC50 (pIC50) on DPP-IV was 6.56.

In the case of `Cn1c(NC2CCCCC2)nc2nc(N3CCCC(N)C3)n(Cc3ccccc3)c2c1=O` (stereo not shown) [1(5), 8-(3-amino-piperidin-1-yl)-7-benzyl-2-cyclohexylamino-1-methyl-1,7-dihydro-purin-6-one trifluoroacetate], the negative-log IC50 (pIC50) at DPP-IV is 6.87. For the compound `Cn1c(NCc2ccccc2)nc2nc(N3CCCC(N)C3)n(Cc3ccccc3)c2c1=O` (stereo not shown) [Example 1, 8-(3-amino-piperidin-1-yl)-7-benzyl-2-benzylamino-1-methyl-1,7-dihydro-purin-6-one], the negative-log IC50 (pIC50) at DPP-IV was 7.96. Moreover, the “toxic side effects or changes in the animals' behaviour” value in series [1] is “no toxic side effects or changes in the animals' behaviour could be detected”. In the case of `Cc1nc2nc(N3CCCC(N)C3)n(Cc3ccccc3)c2c(=O)n1C` (stereo not shown) [1(11), 8-(3-amino-piperidin-1-yl)-7-benzyl-1-methyl-2-methyl-1,7-dihydro-purin-6-one trifluoroacetate], the pIC50 on DPP-IV is 7.27.

(Values after US7569574B2, “Purine derivatives, the preparation thereof and their use as pharmaceutical compositions” (Boehringer Ingelheim Pharma GmbH & Co. KG, priority 2002, dated 2009).)
